Results on 14 compounds are retold here after patent publication US20260274853A1, “BIFUNCTIONAL COMPOUNDS CONTAINING PYRIMIDINE DERIVATIVES FOR DEGRADING CYCLIN-DEPENDENT KINASE 2 VIA UBIQUITIN PROTEASOME PATHWAY” (NIKANG THERAPEUTICS, INC., priority 2022, published 2026).

A value given as a limit tells only on which side of the number the result lay.

The target of assay [1] is T1, CDK2 (Homo sapiens, UniProt P24941).
T1 construct: High-Throughput Measurement of Cellular Endogenous CDK2; endogenous in cells; host or cells: OVCAR3
Nature of the assay: Inhibition of CDK2: phospho-Rb (S807/811) HTRF measurement in OVCAR3 cells. Format: cell-based. The settings on record: 24 h compound treatment, read-out: pRb (nM), IC50 in pRB(S807/811) assay.

The target of assay [2] is T1, CDK2. Nature of the assay: CDK2 HTRF assay: cellular endogenous CDK2 level in OVCAR3 cells. It is filed as cell-based. The settings on record: 24 hours compound treatment, read-out: DC50 (half maximal degradation concentration of CDK2). The method, boiled down: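 Endogenous CDK2 degradation in OVCAR3 cells after 24 h compound treatment at 0.3–10,000 nM. Lysates assayed with an HTRF total-CDK2 two-antibody kit, TR-FRET 665/620 ratio normalized to DMSO. DC50 from four-parameter logistic fit, reported as potency bins.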
A general note: TR-FRET usually uses a lanthanide donor and a delayed reading to cut background.

With `Cc1ncsc1-c1ccc([C@H](C)NC(=O)[C@@H]2C[C@@H](O)CN2C(=O)[C@@H](NC(=O)C2(F)CC2)C(C)(C)SCC2CCN(Cc3cccc(S(=O)(=O)N4CCC(Nc5ncc(C(F)(F)F)c(-c6cnn(CC(F)(F)F)c6)n5)CC4)c3)CC2)cc1` [Example 77, (2S,4R)-1-((R)-2-(1-fluorocyclopropane-1-carboxamido)-3-methyl-3-(((1-(3-((4-((4-(1-(2,2,2-trifluoroethyl)-1H-pyrazol-4-yl)-5-(trifluoromethyl)pyrimidin-2-yl)-amino)piperidin-1-yl)sulfonyl)-benzyl)-piperidin-4-yl)methyl)thio)-butanoyl)-4-hydroxy-N-((S)-1-(4-(4-methylthiazol-5-yl)phenyl)ethyl)-pyrrolidine-2-carboxamide], on CDK2 [1], the IC50 is < 100 nM. Further, the DC50 at CDK2 [2] was < 100 nM.

With `CC(Cc1cccc(S(=O)(=O)N2CCC(Nc3ncc(C(F)(F)F)c(-c4cnn(CC(F)(F)F)c4)n3)CC2)c1)CN1CCC(c2ccc3c(N4CCC(=O)NC4=O)nn(C)c3c2)CC1` (stereo not shown) [Example 78, 1-(1-methyl-6-(1-(2-methyl-3-(3-((4-((4-(1-(2,2,2-trifluoroethyl)-1H-pyrazol-4-yl)-5-(trifluoromethyl)-pyrimidin-2-yl)amino)piperidin-1-yl)sulfonyl)-phenyl)propyl)piperidin-4-yl)-1H-indazol-3-yl)dihydro-pyrimidine-2,4(1H,3H)-dione], the IC50 at CDK2 [1] is < 100 nM. The DC50 at CDK2 [2] was < 100 nM.

On to `CN1CCC(n2cc(-c3nc(NC4CCN(S(=O)(=O)c5cccc(CN6CCC(c7ccc8c(N9CCC(=O)NC9=O)nn(C)c8c7)CC6)c5)CC4)ncc3C(F)(F)F)cn2)CC1` [Example 79, 1-(1-methyl-6-(1-(3-((4-((4-(1-(1-methylpiperidin-4-yl)-1H-pyrazol-4-yl)-5-(trifluoromethyl)pyrimidin-2-yl)-amino)piperidin-1-yl)sulfonyl)-benzyl)-piperidin-4-yl)-1H-indazol-3-yl)dihydro-pyrimidine-2,4(1H,3H)-dione], for which the IC50 at CDK2 [1] is < 100 nM. Besides, on CDK2 [2], the DC50 is < 100 nM.

Regarding `O=C1CCN(C2CCN(Cc3cccc(S(=O)(=O)N4CCC(Nc5ncc(C(F)(F)F)c(-c6cnn(CC(F)(F)F)c6)n5)CC4)c3)C2)C(=O)N1` (stereo not shown) [Example 81, 1-(1-(3-((4-((4-(1-(2,2,2-trifluoro-ethyl)-1H-pyrazol-4-yl)-5-(trifluoromethyl)-pyrimidin-2-yl)amino)-piperidin-1-yl)sulfonyl)benzyl)-pyrrolidin-3-yl)-dihydropyrimidine-2,4(1H,3H)-dione], the IC50 on CDK2 [1] is < 100 nM. Also, the DC50 on CDK2 [2] is < 100 nM.

With `Cn1nc(N2CCC(=O)NC2=O)c2ccc(N3CC4CC(C3)N4Cc3cccc(S(=O)(=O)N4CC[C@H](Nc5ncc(C(F)(F)F)c(-c6cnn(CC(F)(F)F)c6)n5)[C@H](F)C4)c3)cc21` [Example 82, 1-(6-(6-(3-(((3R,4S)-3-fluoro-4-((4-(1-(2,2,2-trifluoroethyl)-1H-pyrazol-4-yl)-5-(trifluoromethyl)pyrimidin-2-yl)amino)-piperidin-1-yl)sulfonyl)-benzyl)-3,6-diazabicyclo[3.1.1]heptan-3-yl)-1-methyl-1H-indazol-3-yl)dihydro-pyrimidine-2,4(1H,3H)-dione], at CDK2 [1], the IC50 was < 100 nM. The DC50 at CDK2 [2] is < 100 nM.

For the compound `O=C1CCC(NS(=O)(=O)N2CCC(Nc3ncc(C(F)(F)F)c(-c4cnn(CC(F)(F)F)c4)n3)CC2)C(=O)N1` (stereo not shown) [Example 83, N-(2,6-dioxopiperidin-3-yl)-4-((4-(1-(2,2,2-trifluoroethyl)-1H-pyrazol-4-yl)-5-(trifluoromethyl)pyrimidin-2-yl)-amino)piperidine-1-sulfonamide], the IC50 on CDK2 [1] lay in the range of 100 to 500 nM. The DC50 on CDK2 [2] is < 100 nM.

Regarding `Cn1nc(N2CCC(=O)NC2=O)c2ccc(C3CCN(C(c4cccc(S(=O)(=O)N5CCC(Nc6ncc(C(F)(F)F)c(-c7cnn(CC(F)(F)F)c7)n6)CC5)c4)C(F)F)CC3)cc21` (stereo not shown) [Example 84, 1-(6-(1-(2,2-difluoro-1-(3-((4-((4-(1-(2,2,2-trifluoroethyl)-1H-pyrazol-4-yl)-5-(trifluoromethyl)pyrimidin-2-yl)amino)-piperidin-1-yl)sulfonyl)-phenyl)ethyl)-piperidin-4-yl)-1-methyl-1H-indazol-3-yl)dihydropyrimidine-2,4(1H,3H)-dione], at CDK2 [1], the IC50 was < 100 nM. The DC50 on CDK2 [2] is < 100 nM.

Consider `Cn1nc(N2CCC(=O)NC2=O)c2ccc(N3CCN(CC4CCN(S(=O)(=O)N5CCC(Nc6ncc(C(F)(F)F)c(-c7cnn(CC(F)(F)F)c7)n6)CC5)CC4)CC3)cc21` [Example 86, 1-(1-methyl-6-(4-((1-((4-((4-(1-(2,2,2-trifluoroethyl)-1H-pyrazol-4-yl)-5-(trifluoromethyl)pyrimidin-2-yl)-amino)piperidin-1-yl)sulfonyl)-piperidin-4-yl)methyl)piperazin-1-yl)-1H-indazol-3-yl)dihydropyrimidine-2,4(1H,3H)-dione], for which the IC50 at CDK2 [1] is < 100 nM. Also, the DC50 on CDK2 [2] was < 100 nM.

Regarding `Cn1nc(N2CCC(=O)NC2=O)c2ccc(C3CCN(CC4CCN(S(=O)(=O)N5CCC(Nc6ncc(C(F)(F)F)c(-c7cnn(CC(F)(F)F)c7)n6)CC5)C4)CC3)cc21` (stereo not shown) [Example 88, 1-(1-methyl-6-(1-((1-((4-((4-(1-(2,2,2-trifluoroethyl)-1H-pyrazol-4-yl)-5-(trifluoromethyl)pyrimidin-2-yl)amino)-piperidin-1-yl)sulfonyl)-pyrrolidin-3-yl)methyl)piperidin-4-yl)-1H-indazol-3-yl)dihydropyrimidine-2,4(1H,3H)-dione], the IC50 at CDK2 [1] was < 100 nM. Besides, the DC50 on CDK2 [2] was < 100 nM.

For `Cn1nc(N2CCC(=O)NC2=O)c2ccc(C3CCN(CC4CCCC(S(=O)(=O)N5CCC(Nc6ncc(C(F)(F)F)c(-c7cnn(CC(F)(F)F)c7)n6)CC5)C4)CC3)cc21` (stereo not shown) [Example 89, 1-(1-methyl-6-(1-((3-((4-((4-(1-(2,2,2-trifluoroethyl)-1H-pyrazol-4-yl)-5-(trifluoromethyl)pyrimidin-2-yl)amino)-piperidin-1-yl)sulfonyl)-cyclohexyl)-methyl)piperidin-4-yl)-1H-indazol-3-yl)dihydropyrimidine-2,4(1H,3H)-dione], the IC50 on CDK2 [1] is < 100 nM. On CDK2 [2], the DC50 is < 100 nM.

Regarding `Cn1nc(N2CCC(=O)NC2=O)c2ccc(C3CCN(CC(C)(C)c4cccc(S(=O)(=O)N5CCC(Nc6ncc(C(F)(F)F)c(-c7cnn(CC(F)(F)F)c7)n6)CC5)c4)CC3)cc21` [Example 90, 1-(1-methyl-6-(1-(2-methyl-2-(3-((4-((4-(1-(2,2,2-trifluoroethyl)-1H-pyrazol-4-yl)-5-(trifluoromethyl)-pyrimidin-2-yl)-amino)piperidin-1-yl)sulfonyl)phenyl)-propyl)piperidin-4-yl)-1H-indazol-3-yl)-dihydro-pyrimidine-2,4(1H,3H)-dione], at CDK2 [1], the IC50 was < 100 nM. Besides, the DC50 at CDK2 [2] was < 100 nM.

Take `Cn1nc(N2CCC(=O)NC2=O)c2ccc(N3CCC(CN4CCC(S(=O)(=O)N5CCC(Nc6ncc(C(F)(F)F)c(-c7cnn(CC(F)(F)F)c7)n6)CC5)CC4)CC3)cc21` [Example 92, 1-(1-methyl-6-(4-((4-((4-((4-(1-(2,2,2-trifluoroethyl)-1H-pyrazol-4-yl)-5-(trifluoromethyl)pyrimidin-2-yl)amino)-piperidin-1-yl)sulfonyl)-piperidin-1-yl)methyl)piperidin-1-yl)-1H-indazol-3-yl)dihydropyrimidine-2,4(1H,3H)-dione]: the IC50 on CDK2 [1] was < 100 nM. On CDK2 [2], the DC50 was < 100 nM.

As to `CC(Cc1cccc(S(=O)(=O)N2CCC(Nc3ncc(C(F)(F)F)c(-c4cnn(CC(F)(F)F)c4)n3)CC2)c1)N1CCC(c2ccc3c(N4CCC(=O)NC4=O)nn(C)c3c2)CC1` (stereo not shown) [Example 93, 1-(1-methyl-6-(1-(1-(3-((4-((4-(1-(2,2,2-trifluoroethyl)-1H-pyrazol-4-yl)-5-(trifluoromethyl)pyrimidin-2-yl)amino)-piperidin-1-yl)sulfonyl)-phenyl)propan-2-yl)piperidin-4-yl)-1H-indazol-3-yl)dihydropyrimidine-2,4(1H,3H)-dione], on CDK2 [1], the IC50 is < 100 nM. Further, on CDK2 [2], the DC50 was < 100 nM.

In the case of `CC(Cc1cccc(S(=O)(=O)N2CCC(Nc3ncc(C(F)(F)F)c(-c4cnn(-c5ccccc5F)c4)n3)CC2)c1)N1CCC(c2ccc3c(N4CCC(=O)NC4=O)nn(C)c3c2)CC1` (stereo not shown) [Example 96, 1-(6-(1-(1-(3-((4-((4-(1-(2-fluoro-phenyl)-1H-pyrazol-4-yl)-5-(trifluoro-methyl)pyrimidin-2-yl)amino)-piperidin-1-yl)sulfonyl)phenyl)propan-2-yl)-piperidin-4-yl)-1-methyl-1H-indazol-3-yl)dihydropyrimidine-2,4(1H,3H)-dione], at CDK2 [1], the IC50 is < 100 nM. Further, on CDK2 [2], the DC50 was < 100 nM.
